Assay results from publication PMC11062922 (Nature Chemical Biology, 2023).
Values joined by “and” are separate entries in the source; they are usually repeats but may differ in a detail not shown here. Identical values can stand only once. Like-named read-outs stand apart in the source and are kept apart here. Values belong to the compound of their own block, whether it stands above or below them.

What was measured:
CK2alpha1 (CSNK2A1) = molecular target: T1, CK2alpha1 (CSNK2A1) (Homo sapiens, UniProt P68400); assay: Recombinant kinase activity assay (ProQinase, FlashPlate radiometric): CK2alpha1; format: biochemical
T1 construct: purchased ProQinase
Procedure: (§1) Kinase activity assays were performed by ProQinase. Dose-dependent activity inhibition of CDK1/cyclinB, CK2alpha1 and CK2alpha2 were measured using a FlashPlateTM-based radiometric assay at KM (ATP) of the respective kinase.

CK2alpha2 (CSNK2A2) = molecular target: T2, CK2alpha2 (CSNK2A2) (Homo sapiens, UniProt P19784); assay: Recombinant kinase activity assay (ProQinase, FlashPlate radiometric): CK2alpha2; format: biochemical
T2 construct: purchased ProQinase
Procedure: as §1

CIT = molecular target: T3, CIT (Homo sapiens, UniProt O14578); assay: Kinobeads full dose-response competition binding: CIT; settings: Gene Name CIT
T3 construct: endogenous in cells

ABL2 = molecular target: T4, ABL2 (Homo sapiens, UniProt P42684); assay: Kinobeads two-dose competition binding: ABL2; settings: read-out: Lestaurtinib Drugmatrix value, Gene Name ABL2
T4 construct: endogenous in cells

ACAD11 = molecular target: T5, ACAD11 (Homo sapiens, UniProt Q709F0); assay: Kinobeads two-dose competition binding: ACAD11; settings: read-out: Lestaurtinib Drugmatrix value, Gene Name ACAD11
T5 construct: endogenous in cells
T5 sequence (Q709F0 1-780): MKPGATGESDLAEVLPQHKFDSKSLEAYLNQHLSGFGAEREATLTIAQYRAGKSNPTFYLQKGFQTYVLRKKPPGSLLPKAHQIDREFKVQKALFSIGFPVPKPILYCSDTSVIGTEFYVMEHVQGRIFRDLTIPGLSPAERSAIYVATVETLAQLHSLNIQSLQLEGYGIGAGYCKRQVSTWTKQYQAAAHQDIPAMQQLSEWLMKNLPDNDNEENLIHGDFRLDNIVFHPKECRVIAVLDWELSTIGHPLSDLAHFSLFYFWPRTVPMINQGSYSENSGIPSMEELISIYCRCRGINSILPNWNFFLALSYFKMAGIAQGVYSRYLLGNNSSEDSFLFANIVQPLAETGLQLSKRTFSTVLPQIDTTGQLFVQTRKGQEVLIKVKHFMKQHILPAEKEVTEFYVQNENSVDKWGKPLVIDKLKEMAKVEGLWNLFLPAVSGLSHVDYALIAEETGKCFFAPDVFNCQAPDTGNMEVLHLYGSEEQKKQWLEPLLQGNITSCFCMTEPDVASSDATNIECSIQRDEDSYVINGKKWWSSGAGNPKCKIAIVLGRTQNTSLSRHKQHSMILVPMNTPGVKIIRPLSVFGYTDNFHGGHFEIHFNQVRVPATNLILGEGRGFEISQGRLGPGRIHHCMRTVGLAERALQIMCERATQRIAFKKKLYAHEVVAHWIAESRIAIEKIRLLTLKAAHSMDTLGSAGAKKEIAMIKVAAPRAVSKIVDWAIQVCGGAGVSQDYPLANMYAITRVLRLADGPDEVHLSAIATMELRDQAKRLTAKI

DYRK1A = molecular target: T6, DYRK1A (Homo sapiens, UniProt Q13627); assay: Kinobeads two-dose competition binding: DYRK1A; settings: read-out: Lestaurtinib Drugmatrix value, Gene Name DYRK1A, target DYRK1A; each column = one Lestaurtinib control replicate (batch_R1-R3)
T6 construct: endogenous in cells

EPHA2 = molecular target: T7, EPHA2 (Homo sapiens, UniProt P29317); assay: Kinobeads two-dose competition binding: EPHA2; settings: read-out: Lestaurtinib Drugmatrix value, Gene Name EPHA2
T7 construct: endogenous in cells

ULK1 = molecular target: T8, ULK1 (Homo sapiens, UniProt O75385); assay: Kinobeads two-dose competition binding: ULK1; settings: read-out: Lestaurtinib Drugmatrix value, Gene Name ULK1; repeated control pulldowns; each column = experiment id and replicate (Lestaurtinib_02339_R1 ... Lestaurtinib_03260_R3)
T8 construct: to maximize the representation of endogenous proteins; endogenous in cells

BUB1 = molecular target: T9, BUB1 (Homo sapiens, UniProt O43683); assay: Kinobeads two-dose competition binding: BUB1; settings: read-out: Lestaurtinib Drugmatrix value, Gene Name BUB1
T9 construct: endogenous in cells

PIM1 = molecular target: T10, PIM1 (Homo sapiens, UniProt P11309); assay: Kinobeads competition binding, Lestaurtinib control replicates: PIM1; settings: read-out: Lestaurtinib Drugmatrix value; Gene Name PIM1; one column per experiment number and replicate (R1-R3)
T10 construct: a mixture of lysates from five cancer cell lines; endogenous in cells

PIM3 = molecular target: T11, PIM3 (Homo sapiens, UniProt Q86V86); assay: Kinobeads competition binding, Lestaurtinib control replicates: PIM3
T11 construct: a mixture of lysates from five cancer cell lines; endogenous in cells

PRKACG [1] = molecular target: T12, PRKACG (Homo sapiens, UniProt P22612); assay: Kinobeads competition binding, Lestaurtinib control replicates: PRKACG; settings: read-out: Lestaurtinib Drugmatrix value; Gene Name PRKACG; one column per experiment number and replicate (R1-R3)
T12 construct: endogenous in cells

PRKACG [2] = molecular target: T12, PRKACG; assay: Kinobeads full dose-response competition binding: PRKACG; settings: Gene Name PRKACG
SPR = molecular target: T13, SPR (Homo sapiens, UniProt P35270); assay: Kinobeads full dose-response competition binding: SPR; settings: Gene Name SPR
T13 construct: endogenous in cells

MAP3K5 = molecular target: T14, MAP3K5 (Homo sapiens, UniProt Q99683); assay: Kinobeads two-dose competition binding: MAP3K5; settings: Drugmatrix - all 2, read-out: apparent Kd MAP3K5
T14 construct: endogenous in cells

PIK3CG = molecular target: T15, PIK3CG (Homo sapiens, UniProt P48736); assay: Kinobeads two-dose competition binding: PIK3CG; settings: sheet "Kinobeads Drugmatrix-nanomolar2" (compounds in rows); read-out: Kinobeads Drugmatrix-nanomolar2: apparent Kd, PIK3CG
T15 construct: endogenous in cells
Source text: Supplement 41589_2023_1459_MOESM3_ESM.xlsx, sheet "Kinobeads Drugmatrix-nanomolar2" | column: PIK3CG

[3] = EC50 with Correction, doses in nM, read-out: apparent Kd
[4] = eight-dose curve fit, doses in nM

SMILES: COc1cc(Nc2ncc3c(C)nc(-c4cc5ccccc5[nH]4)n3n2)cc(OC)c1OC [GW869516X]
IC50 (CK2alpha1 (CSNK2A1); Enzyme CK2alpha1, Highest Assay Concentration 1.00E-06 M, read-out: IC50): 85.1 nM
IC50 (CK2alpha1 (CSNK2A1); recombinant kinase activity assay at KM (ATP), read-out: Activity IC50 CSNK2A1): 85 nM
IC50 (CK2alpha2 (CSNK2A2); Enzyme CK2alpha2, Highest Assay Concentration 1.00E-06 M, read-out: IC50): 33.7 nM
IC50 (CK2alpha2 (CSNK2A2); recombinant kinase activity assay at KM (ATP), read-out: Activity IC50 CSNK2A2): 34 nM

Relative Intensity 0.3nM (CIT; 0.3nM compound, DMSO = 1): 1.0296
Relative Intensity 1nM (CIT; 1nM compound, DMSO = 1): 1.0023
Relative Intensity 3nM (CIT; 3nM compound, DMSO = 1): 1.019
Relative Intensity 10nM (CIT; 10nM compound, DMSO = 1): 1.082
Relative Intensity 30nM (CIT; 30nM compound, DMSO = 1): 1.01
Relative Intensity 100nM (CIT; 100nM compound, DMSO = 1): 0.9604
Relative Intensity 300nM (CIT; 300nM compound, DMSO = 1): 0.7575
Relative Intensity 1000nM (CIT; 1000nM compound, DMSO = 1): 0.5648
Kd (CIT; [3]): 279 nM
EC50 (CIT; [4]): 279 nM
SMILES: CCn1c(-c2nonc2N)nc2c(C#CC(C)(C)O)nc(OCCN)cc21 [GSK902056A]

SMILES: C[C@]12O[C@H](C[C@]1(O)CO)n1c3ccccc3c3c4c(c5c6ccccc6n2c5c31)CNC4=O [Lestaurtinib]
potency estimated from few doses (ABL2): 340 nM
potency estimated from few doses (ACAD11): 890 nM
potency estimated from few doses (DYRK1A): 820 nM
potency estimated from few doses (EPHA2): 428 nM
potency estimated from few doses (ULK1): 549 nM
potency estimated from few doses (BUB1): 854 nM
potency estimated from few doses (PIM1): 860 nM
potency estimated from few doses (PIM3; read-out: Lestaurtinib Drugmatrix value, PIM3, Gene Name PIM3; one column per experiment number and replicate (R1-R3)): 611 nM
potency estimated from few doses (PIM3; read-out: Lestaurtinib Drugmatrix value, PIM3; Gene Name PIM3; one column per experiment number and replicate (R1-R3)): 656 nM and 795 nM
potency estimated from few doses (PRKACG [1]): 769 nM

SMILES: CCn1c(-c2nonc2N)nc2c(C#CC(C)(C)O)nc(OCCNC)cc21 [GSK949675A]
Relative Intensity 0.3nM (PRKACG [2]; 0.3nM compound, DMSO = 1): 0.6931
Relative Intensity 1nM (PRKACG [2]; 1nM compound, DMSO = 1): 0.8057
Relative Intensity 3nM (PRKACG [2]; 3nM compound, DMSO = 1): 0.9707
Relative Intensity 10nM (PRKACG [2]; 10nM compound, DMSO = 1): 0.8006
Relative Intensity 30nM (PRKACG [2]; 30nM compound, DMSO = 1): 0.7952
Relative Intensity 100nM (PRKACG [2]; 100nM compound, DMSO = 1): 0.9305
Relative Intensity 300nM (PRKACG [2]; 300nM compound, DMSO = 1): 0.645
Relative Intensity 1000nM (PRKACG [2]; 1000nM compound, DMSO = 1): 0.4141
Kd (PRKACG [2]; [3]): 262 nM
EC50 (PRKACG [2]; [4]): 303 nM

SMILES: NCc1ccc(-c2nc(-c3ccncc3)c(-c3ccc(Cl)c(O)c3)[nH]2)cc1 [SB-476429-A]
Relative Intensity 0.3nM (SPR; 0.3nM compound, DMSO = 1): 0.9627
Relative Intensity 1nM (SPR; 1nM compound, DMSO = 1): 0.9101
Relative Intensity 3nM (SPR; 3nM compound, DMSO = 1): 0.8696
Relative Intensity 10nM (SPR; 10nM compound, DMSO = 1): 0.7693
Relative Intensity 30nM (SPR; 30nM compound, DMSO = 1): 0.5216
Relative Intensity 100nM (SPR; 100nM compound, DMSO = 1): 0.1442
Relative Intensity 300nM (SPR; 300nM compound, DMSO = 1): 0.02935
Relative Intensity 1000nM (SPR; 1000nM compound, DMSO = 1): 0.01082
Kd (SPR; [3]): 32.8 nM
EC50 (SPR; [4]): 32.8 nM

potency estimated from few doses (MAP3K5): > 1000 nM
potency estimated from few doses (PIK3CG): 109 nM
SMILES: CC(C)N1CC(=O)N(C)c2cnc(Nc3cccc(S(=O)(=O)CCN4CCOCC4)c3)nc21 [BI00009348]
